# Reference: patent US8158088B2, “Extractant compositions for co-extracting cesium and strontium, a method of separating cesium and strontium from an aqueous feed, and calixarene compounds” (Battelle Energy Alliance, LLC, priority 2008, dated 2012)
# Assay: Strontium distribution ratio (DSr), equilibrium batch contact of mixed extractant solvent with nitric acid feed
# Format: physicochemical
structure (smiles),measurement,setting,value
"CCCCCCCCOc1c2cccc1Cc1cccc3c1OCCOCCOc1ccccc1OCCOCCOc1c(cccc1Cc1cccc(c1OCCCCCCCC)C3)C2 [MC-8, 1,3-alternate-25,27-di(octyloxy)calix[4]arenebenzocrown-6]",DSr,"0.010 M MC-8, contact E1, 1.5 M HNO3, 0.075 M DtBuCH18C6, 0.75 M Cs-7SB, 0.003 M TOA in ISOPAR L",8.9
same,DSr,"0.015 M MC-8, contact E1, 1.5 M HNO3",7.2
same,DSr,"0.020 M MC-8, contact E1, 1.5 M HNO3",9.4
same,DSr,"0.025 M MC-8, contact E1, 1.5 M HNO3",9.1
same,DSr,"1.0 M HNO3, 20 °C, contact E1, 0.025 M MC-8, 0.075 M DtBuCH18C6, 0.75 M Cs-7SB, 0.003 M TOA in ISOPAR L",7.4
same,DSr,"1.5 M HNO3, 20 °C, contact E1, 0.025 M MC-8",12.4
same,DSr,"2.0 M HNO3, 20 °C, contact E1, 0.025 M MC-8",16.2
same,DSr,"3.0 M HNO3, 20 °C, contact E1, 0.025 M MC-8",3rd phase
same,DSr,"4.0 M HNO3, 20 °C, contact E1, 0.025 M MC-8",3rd phase
same,DSr,"15 °C, contact E1, 1.0 M HNO3 feed, 0.025 M MC-8, 0.075 M DtBuCH18C6, 0.75 M Cs-7SB, 0.003 M TOA in ISOPAR L",9.0
same,DSr,"20 °C, contact E1, 1.0 M HNO3 feed, 0.025 M MC-8",6.0
same,DSr,"25 °C, contact E1, 1.0 M HNO3 feed, 0.025 M MC-8",4.6
same,DSr,"30 °C, contact E1, 1.0 M HNO3 feed, 0.025 M MC-8",3.4
same,DSr,"35 °C, contact E1, 1.0 M HNO3 feed, 0.025 M MC-8",2.5
same,DSr,"contact E1, batch contact flowsheet, simulated feed 1.0 M HNO3, 0.025 M MC-8",7.1
same,DSr,"contact E2, simulated feed 1.0 M HNO3, 0.025 M MC-8",6.2
same,DSr,"contact E3, simulated feed 1.0 M HNO3, 0.025 M MC-8",6.2
same,DSr,"contact St1 (strip), 0.025 M MC-8",0.022
same,DSr,"contact St2 (strip), 0.025 M MC-8",0.006
same,"Strontium distribution ratio, contact E1","first forward extraction, 1.5 M HNO3 feed simulant, 25 °C, 0.007 M calixarene, 0.075 M DtBuCH18C6, 0.75 M Cs-7SB, 0.003 M TOA in ISOPAR L",10.5
same,"Strontium distribution ratio, contact St1","first strip with 0.01 M HNO3, 35 °C, 0.007 M calixarene solvent",0.06
same,"Strontium distribution ratio, contact E2","second forward extraction, 1.5 M HNO3 feed, 25 °C, 0.007 M calixarene solvent",8.6
same,"Strontium distribution ratio, contact St2","second strip with 0.01 M HNO3, 35 °C, 0.007 M calixarene solvent",0.01
same,"Strontium distribution ratio, contact E3","third forward extraction, 1.5 M HNO3 feed, 25 °C, 0.007 M calixarene solvent",8.5
